From PubChem BioAssay (NCI)
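Growth conditions: 96-well plates. Treatment: test compound, 48 hours, 5 concentrations. Analysis: linear interpolation between bracketing concentrations; unreached endpoints set to highest concentration. The concentration for full growth arrest is given as TGI.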

Assays:
Assay in all cases: NCI anticancer screen, dose series, 48 h
786-0 renal = tested on: 786-0 renal
SNB-75 CNS = tested on: SNB-75 CNS
PC-3 prostate = tested on: PC-3 prostate
OVCAR-5 ovarian = tested on: OVCAR-5 ovarian
LOX IMVI melanoma = tested on: LOX IMVI melanoma
MCF7 breast = tested on: MCF7 breast
HCC-2998 colon = tested on: HCC-2998 colon
SF-295 CNS = tested on: SF-295 CNS
SN12C renal = tested on: SN12C renal
BT-549 breast = tested on: BT-549 breast
NCI-H460 lung = tested on: NCI-H460 lung
SK-OV-3 ovarian = tested on: SK-OV-3 ovarian
UACC-62 melanoma = tested on: UACC-62 melanoma
NCI-H226 lung = tested on: NCI-H226 lung
SF-539 CNS = tested on: SF-539 CNS
HS 578T breast = tested on: HS 578T breast
MALME-3M melanoma = tested on: MALME-3M melanoma
TK-10 renal = tested on: TK-10 renal
HL-60(TB) leukemia = tested on: HL-60(TB) leukemia
CAKI-1 renal = tested on: CAKI-1 renal
HOP-92 NSCLC = tested on: HOP-92 NSCLC
SNB-19 CNS = tested on: SNB-19 CNS
OVCAR-8 ovarian = tested on: OVCAR-8 ovarian
M14 melanoma = tested on: M14 melanoma
CCRF-CEM leukemia = tested on: CCRF-CEM leukemia
K-562 leukemia = tested on: K-562 leukemia
NCI/ADR-RES ovarian = tested on: NCI/ADR-RES ovarian
SK-MEL-2 melanoma = tested on: SK-MEL-2 melanoma
HT29 colon = tested on: HT29 colon
IGROV1 ovarian = tested on: IGROV1 ovarian
A549 NSCLC = tested on: A549 NSCLC
MDA-MB-231 breast = tested on: MDA-MB-231 breast
SF-268 CNS = tested on: SF-268 CNS
U251 CNS = tested on: U251 CNS
HOP-62 NSCLC = tested on: HOP-62 NSCLC
T-47D breast = tested on: T-47D breast
KM12 colon = tested on: KM12 colon
SR leukemia = tested on: SR leukemia
NCI-H23 lung = tested on: NCI-H23 lung
RXF 393 renal = tested on: RXF 393 renal
MDA-MB-435 = tested on: MDA-MB-435
HCT-116 colon = tested on: HCT-116 colon
SW-620 colon = tested on: SW-620 colon
OVCAR-4 ovarian = tested on: OVCAR-4 ovarian
ACHN renal = tested on: ACHN renal
COLO 205 colon = tested on: COLO 205 colon
OVCAR-3 ovarian = tested on: OVCAR-3 ovarian
RPMI-8226 leukemia = tested on: RPMI-8226 leukemia
UACC-257 melanoma = tested on: UACC-257 melanoma
SK-MEL-5 melanoma = tested on: SK-MEL-5 melanoma
DU-145 prostate = tested on: DU-145 prostate
EKVX NSCLC = tested on: EKVX NSCLC
UO-31 renal = tested on: UO-31 renal
MOLT-4 leukemia = tested on: MOLT-4 leukemia
SK-MEL-28 melanoma = tested on: SK-MEL-28 melanoma
NCI-H522 lung = tested on: NCI-H522 lung
HCT-15 colon = tested on: HCT-15 colon
A498 renal = tested on: A498 renal
MDA-N = tested on: MDA-N

## CC(=O)OC(CN1CCN(c2ccccn2)CC1)Cn1sc2nc(C)cc(C)c2c1=O (centres undefined)
786-0 renal
  TGI: 28.1 µM
SNB-75 CNS
  TGI: 32.8 µM
PC-3 prostate
  TGI: 31.3 µM
OVCAR-5 ovarian
  TGI: 31.5 µM
LOX IMVI melanoma
  TGI: 47.4 µM
MCF7 breast
  TGI: 34 µM
HCC-2998 colon
  TGI: 34.4 µM
SF-295 CNS
  TGI: > 100 µM
SN12C renal
  TGI: 37.2 µM
BT-549 breast
  TGI: 33.2 µM
NCI-H460 lung
  TGI: 35.2 µM
SK-OV-3 ovarian
  TGI: 35.9 µM
UACC-62 melanoma
  TGI: 30 µM
NCI-H226 lung
  TGI: > 100 µM
SF-539 CNS
  TGI: 29.2 µM
HS 578T breast
  TGI: 44.8 µM
MALME-3M melanoma
  TGI: 32.6 µM
TK-10 renal
  TGI: 31.3 µM
HL-60(TB) leukemia
  TGI: 55.5 µM
CAKI-1 renal
  TGI: 37.2 µM
HOP-92 NSCLC
  TGI: > 100 µM
SNB-19 CNS
  TGI: > 100 µM
OVCAR-8 ovarian
  TGI: 73.9 µM
M14 melanoma
  TGI: 31.4 µM
CCRF-CEM leukemia
  TGI: > 100 µM
K-562 leukemia
  TGI: 94 µM
NCI/ADR-RES ovarian
  TGI: 67.1 µM
SK-MEL-2 melanoma
  TGI: 32.2 µM
HT29 colon
  TGI: 34.4 µM
IGROV1 ovarian
  TGI: 33.4 µM
A549 NSCLC
  TGI: 45.8 µM
MDA-MB-231 breast
  TGI: 32.6 µM
SF-268 CNS
  TGI: 32.9 µM
U251 CNS
  TGI: 32.1 µM
HOP-62 NSCLC
  TGI: 81.1 µM
T-47D breast
  TGI: 76.8 µM
KM12 colon
  TGI: 49 µM
SR leukemia
  TGI: > 100 µM
NCI-H23 lung
  TGI: 43 µM
RXF 393 renal
  TGI: 35.6 µM
MDA-MB-435
  TGI: 34.5 µM
HCT-116 colon
  TGI: 30.5 µM
SW-620 colon
  TGI: > 100 µM
OVCAR-4 ovarian
  TGI: 55.4 µM
ACHN renal
  TGI: 30 µM
COLO 205 colon
  TGI: 31.2 µM
OVCAR-3 ovarian
  TGI: 50.7 µM
RPMI-8226 leukemia
  TGI: > 100 µM
UACC-257 melanoma
  TGI: 32 µM
SK-MEL-5 melanoma
  TGI: 26.1 µM
DU-145 prostate
  TGI: 33.9 µM
EKVX NSCLC
  TGI: 32.4 µM
UO-31 renal
  TGI: 30.2 µM
MOLT-4 leukemia
  TGI: > 100 µM
SK-MEL-28 melanoma
  TGI: 42.2 µM
NCI-H522 lung
  TGI: 22.7 µM
HCT-15 colon
  TGI: 42.2 µM
A498 renal
  TGI: 32.2 µM

## CC(=O)OCC(C)C1=C(OC(C)=O)C(=O)C2(C)C/C=C(/C)CC/C=C(\C)CCC(OC(C)=O)C(C)CCC12 (centres undefined)
786-0 renal
  TGI: 28.1 µM
SNB-75 CNS
  TGI: > 100 µM
PC-3 prostate
  TGI: 30.2 µM
MDA-N
  TGI: 33.5 µM
OVCAR-5 ovarian
  TGI: 25.4 µM
LOX IMVI melanoma
  TGI: 35 µM
MCF7 breast
  TGI: 38.2 µM
HCC-2998 colon
  TGI: 31.2 µM
SF-295 CNS
  TGI: 31.3 µM
SN12C renal
  TGI: 36.5 µM
NCI-H460 lung
  TGI: 10.8 µM
UACC-62 melanoma
  TGI: 28 µM
SF-539 CNS
  TGI: 38.7 µM
HS 578T breast
  TGI: 60 µM
TK-10 renal
  TGI: 39 µM
HL-60(TB) leukemia
  TGI: 27.5 µM
HOP-92 NSCLC
  TGI: 20.3 µM
SNB-19 CNS
  TGI: 43.9 µM
OVCAR-8 ovarian
  TGI: 44.9 µM
M14 melanoma
  TGI: 34.2 µM
CCRF-CEM leukemia
  TGI: 40.9 µM
K-562 leukemia
  TGI: 33.4 µM
SK-MEL-2 melanoma
  TGI: 30.6 µM
HT29 colon
  TGI: 33.5 µM
IGROV1 ovarian
  TGI: 48.3 µM
MDA-MB-231 breast
  TGI: 27.7 µM
SF-268 CNS
  TGI: 35 µM
U251 CNS
  TGI: 31.3 µM
HOP-62 NSCLC
  TGI: 27.5 µM
T-47D breast
  TGI: 89 µM
KM12 colon
  TGI: 36.9 µM
SR leukemia
  TGI: 40.3 µM
MDA-MB-435
  TGI: 38.2 µM
HCT-116 colon
  TGI: 36 µM
SW-620 colon
  TGI: 40.7 µM
OVCAR-4 ovarian
  TGI: 82.3 µM
ACHN renal
  TGI: 39.3 µM
COLO 205 colon
  TGI: 37.8 µM
RPMI-8226 leukemia
  TGI: 35.3 µM
UACC-257 melanoma
  TGI: 35.8 µM
SK-MEL-5 melanoma
  TGI: 30.2 µM
DU-145 prostate
  TGI: 36.7 µM
UO-31 renal
  TGI: 31.2 µM
MOLT-4 leukemia
  TGI: 27.9 µM
SK-MEL-28 melanoma
  TGI: 33.8 µM
HCT-15 colon
  TGI: 34 µM
